Assay results published in PubChem BioAssay (NCI).
Where “and” joins values, the source holds several entries; their conditions need not be identical. Equal values may be shown once.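 Briefly, cells in 96-well plates were exposed to five compound concentrations for 48 h, and endpoints were estimated by linear interpolation. GI50 marks 50% less growth. The concentration for full growth arrest is given as TGI.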

Assays:
Assay in all cases: inhibition of tumour cell growth, NCI panel, 48 h
OVCAR-3 ovarian = tested on: OVCAR-3 ovarian
A549 NSCLC = tested on: A549 NSCLC
KM12 colon = tested on: KM12 colon
COLO 205 colon = tested on: COLO 205 colon
SNB-19 CNS = tested on: SNB-19 CNS
M14 melanoma = tested on: M14 melanoma
HOP-92 NSCLC = tested on: HOP-92 NSCLC
SR leukemia = tested on: SR leukemia
T-47D breast = tested on: T-47D breast
MCF7 breast = tested on: MCF7 breast

SMILES | TGI (OVCAR-3 ovarian) [µM] | TGI (A549 NSCLC) [µM] | TGI (KM12 colon) [µM] | TGI (COLO 205 colon) [µM] | TGI (SNB-19 CNS) [µM] | TGI (M14 melanoma) [µM] | TGI (HOP-92 NSCLC) [µM] | TGI (SR leukemia) [µM] | GI50 (OVCAR-3 ovarian) [µM] | GI50 (A549 NSCLC) [µM] | GI50 (KM12 colon) [µM] | GI50 (COLO 205 colon) [µM] | GI50 (SNB-19 CNS) [µM] | GI50 (M14 melanoma) | GI50 (HOP-92 NSCLC) [µM] | TGI (T-47D breast) [µM] | GI50 (SR leukemia) [nM] | GI50 (T-47D breast) [µM] | GI50 (MCF7 breast) [µM] | TGI (MCF7 breast) [µM]
CCOc1ccc(NC(=O)CCC(=O)NN)cc1 | > 100 | > 100 | > 100 | > 100 | > 100 | > 100 | > 100 | – | – | – | – | – | – | – | – | – | – | – | – | –
OC1C2C=CCC1CCC2 (stereo not given) | > 100 | > 100 | > 100 | > 100 | > 100 | > 100 | > 100 | > 100 | – | – | – | – | – | – | – | – | – | – | – | –
NC(=O)CCC(NC(=O)C(F)(F)F)C(=O)O (stereo not given) | > 100 | > 100 | > 100 | > 100 | > 100 | > 100 | > 100 | – | – | – | – | – | – | – | – | – | – | – | – | –
CCOC(=O)CNC(=O)C(CSC(=O)N(C)O)NC(=O)CCC(N)C(=O)O (stereo not given) | > 2000 | > 2000 | > 2000 | – | > 2000 | > 2000 | > 2000 | 1.02 | > 2000 | > 2000 | > 2000 | > 2000 | > 2000 | > 2000 µM | > 2000 | – | – | – | – | –
CCOC(=O)C1(Cc2ccc3ccccc3c2)CCCCCN1 (stereo not given) | > 100 | > 100 | – | 34.4 | > 100 | 48.1 | 55.4 | – | – | – | – | – | – | – | – | – | – | – | – | –
Cc1cc(C)c2[s+]snc2c1 | > 100 | > 100 | > 100 | > 100 | > 100 | > 100 | – | 77 | – | – | – | – | – | – | – | – | – | – | – | –
O=C1c2ccccc2C(=O)c2sc(Nc3ccc(Cl)c(Cl)c3)nc21 | 6.3 | 54.5 | 18 | 15.4 | 32.9 | 9.86 | 28 | 11.5 | – | – | – | – | – | – | – | 22.7 | – | – | – | –
C[N+]1=c2c3cccc4cccc(c(=O)n2CCC1)c43 | 55.1 | 96.8 | > 100 | 32.2 | – | 33.2 | 93.3 | 46.9 | – | – | – | – | – | – | – | – | – | – | – | –
CC1=NN(c2ccccc2)C(=O)C1N=Nc1ccc(Br)c(C)c1 (stereo not given) | > 100 | > 100 | > 100 | > 100 | > 100 | > 100 | > 100 | – | – | – | – | – | – | – | – | – | – | – | – | –
Nn1c(N=Nc2c(O)[nH]c3ccccc23)n[nH]c1=S | > 100 | > 100 | > 100 | > 100 | > 100 | > 100 | > 100 | > 100 | – | – | – | – | – | – | – | – | – | – | – | –
CP(C)C.[Ag][I] | > 100 | > 100 | > 100 | > 100 | > 100 | > 100 | > 100 | > 100 | – | – | – | – | – | – | – | – | – | – | – | –
NNC(=S)N/N=C/C(Cl)=C(\Cl)C(=O)O | > 100 | > 100 | – | – | > 100 | > 100 | > 100 | > 100 | – | – | – | – | – | – | – | – | – | – | – | –
CC12C(=O)N(CCN)C(=O)C1C1c3ccccc3C2c2ccccc21 (stereo not given) | > 100 | > 100 | > 100 | > 100 | > 100 | > 100 | 98.4 | – | – | – | – | – | – | – | – | – | – | – | – | –
CC[O-].CC[O-].O=C([CH-]C(=O)c1ccccc1)c1ccccc1.O=C([CH-]C(=O)c1ccccc1)c1ccccc1.[Ti+4] | > 100 | > 100 | > 100 | > 100 | – | > 100 | > 100 | > 100 | > 100 | > 100 | > 100 | > 100 | – | > 100 µM | 44.3 | – | 62400 | – | – | –
CC(C)(C)C[P+](C)(C)c1ccccc1 | > 100 | > 100 | > 100 | > 100 | > 100 | > 100 | > 100 | > 100 | – | – | – | – | – | – | – | – | – | – | – | –
Oc1[nH]c2ccc(Cl)cc2c1/C=c1/ccc2c(c1)N=C(c1cc(F)cc(F)c1)N=2 | 5.73 | – | > 100 | > 100 | > 100 | 5.66 | 31.1 | 7.95 | 2.26 | – | 3.55 | 4.28 | > 100 | 2.18 µM | 2.41 | > 100 | 2980 | 4.47 | – | –

SMILES | TGI (OVCAR-3 ovarian) [µM] | TGI (A549 NSCLC) [µM] | TGI (KM12 colon) [µM] | TGI (COLO 205 colon) [µM] | TGI (SNB-19 CNS) [µM] | TGI (M14 melanoma) [µM] | TGI (HOP-92 NSCLC) [µM] | TGI (SR leukemia) [µM] | GI50 (OVCAR-3 ovarian) [µM] | GI50 (A549 NSCLC) [µM] | GI50 (KM12 colon) [µM] | GI50 (COLO 205 colon) [µM] | GI50 (SNB-19 CNS) [µM] | GI50 (M14 melanoma) | GI50 (HOP-92 NSCLC) [µM] | TGI (T-47D breast) [µM] | GI50 (SR leukemia) [nM] | GI50 (T-47D breast) [µM] | GI50 (MCF7 breast) [µM] | TGI (MCF7 breast) [µM]
Cc1cc2c(cc1C)[n+]([O-])c(-c1c(Cl)cccc1Cl)c(N)[n+]2[O-] | 99.5 | 98.9 | > 100 | 38.4 | > 100 | > 100 | > 100 | – | – | – | – | – | – | – | – | – | – | – | – | –
Cc1cccc(N=C2NC(=O)C(CC(=O)Nc3ccc(Cl)cc3C)S2)c1 (stereo not given) | > 100 | > 100 | > 100 | > 100 | > 100 | > 100 | – | – | – | – | – | – | – | – | – | – | – | – | – | –
CCC[CH2][Sn]1([CH2]CCC)[O]C(=O)c2cc(C)ccc2[O]1 | 1.91 | 3.32 | 2.7 | 1.5 | 1.93 | 1.5 | 1.65 | 1.28 | 0.614 | 1.92 | 1.15 | 0.46 | 0.7 | 0.342 µM | 0.327 | – | 295 | – | – | –
N#CC12Cc3ccc4c(c3-c3cccc(c31)CCN2C(=O)c1ccccc1)OCO4 (stereo not given) | > 100 | > 100 | > 100 | > 100 | > 100 | > 100 | > 100 | > 100 | – | – | – | – | – | – | – | – | – | – | – | –
CC12OC3CC(O1)C1(C=O)C4CCC5(C)C(c6ccc(=O)oc6)CCC5(O)C4CCC1(C3)O2 (stereo not given) | 0.384 | 0.194 | 1.4 | 1.69 | 1.78 | 0.596 | 1.71 | 0.245 | – | – | – | – | – | – | – | – | – | – | – | –
CC[C@H](C)[C@H](NC(=O)C12CC(NC(C)=O)(C1)C2)C(=O)N(C)[C@H](C[C@@H](OC(C)=O)c1nc(C(=O)N[C@@H](Cc2ccccc2)C[C@H](C)C(=O)OC)cs1)C(C)C | 0.569 | > 16.7 | > 16.7 | 1.06 | > 16.7 | 1.88 | > 16.7 | > 16.7 | 0.0494 | 0.907 | 0.296 | 0.0991 | 0.607 | 0.13 µM | > 11.8 | – | 33.6 | – | 0.0489 | > 16.7
CC(C)[O-].CC(C)[O-].[O-]c1cccc2cccnc12.[O-]c1cccc2cccnc12.[Ti+4] | > 100 | > 100 | 50 | > 100 | > 100 | > 100 | 50.3 | – | 15.4 | 41.7 | 21 | 24.7 | 61.6 | 9.68 µM and 10.8 µM | 14.3 | – | – | – | – | –
COC(=O)C1=Cc2c(OC)cc(OC)c(OC)c2[C@H](c2cc(OC)c(OC)cc2OC)C1C(=O)OC (stereo not given in full) | > 100 | > 100 | > 100 | > 100 | > 100 | > 100 | > 100 | – | – | – | – | – | – | – | – | – | – | – | – | –
Cc1sc(/N=C2/NC(=O)CS2)nc1-c1nc(/N=C2/NC(=O)CS2)sc1C | > 50 | > 50 | > 50 | > 50 | > 50 | – | – | > 50 | > 50 | > 50 | 28.9 | > 50 | > 50 | – | – | – | 24900 | – | 19.7 | > 50
C=C(C)[C@@H]1CC[C@]2(C)[C@H](C=CC3=C4C[C@@](C)(CO)CC[C@]4(C)CC[C@]32C)[C@@]1(C)CCCN | 2.85 | 3.18 | 3.02 | 3.23 | 3.17 | 3.34 | 3.21 | – | 1.48 | 1.6 | 1.6 | 1.49 | 1.75 | 1.69 µM | 1.48 | – | – | – | 1.6 | 3.4
CCc1oc2ccc(OC)c3c2c1C=CC=C3 | > 100 | > 100 | > 100 | > 100 | > 100 | > 100 | – | > 100 | – | – | – | – | – | – | – | – | – | – | – | –
O=c1[nH]c2c(O)cccc2c2cc3c(c(O)c12)OCO3 | 45.2 | > 100 | 41.2 | 34.5 | 70.5 | 52.4 | 63.9 | – | – | – | – | – | – | – | – | – | – | – | – | –
CC(C)NC(=O)O/N=C1\CCC2[C@@H]3CC=C4C[C@@H](OC(=O)NC(C)C)CC[C@]4(C)C3CC[C@]12C (stereo not given in full) | 3.6 | 5.11 | 3.73 | 1.29 | 6.05 | 1.95 | 5.02 | 7.69 | – | – | – | – | – | – | – | – | – | – | – | –
CCOC(=O)C1CC/C(=C(/C#N)C(=O)OC)N1 (stereo not given) | > 100 | > 100 | > 100 | > 100 | > 100 | > 100 | > 100 | > 100 | – | – | – | – | – | – | – | – | – | – | – | –
CCOC(=O)N1CCC(=O)C[C@@H]1C/C=C/P1(=O)O[C@H](c2ccccc2)C(C)N1C(C)C (stereo not given in full) | > 100 | > 100 | > 100 | – | > 100 | – | > 100 | > 100 | – | – | – | – | – | – | – | – | – | – | – | –
N#CC(C#N)=Cc1ccc(-c2ccc(-c3nc4ccccc4o3)cc2)o1 | > 100 | > 100 | > 100 | > 100 | > 100 | > 100 | – | – | 66.7 | 28.2 | 19.4 | 40 | > 100 | 77.4 µM | – | 90.1 | – | 5.04 | 7.99 | > 100
